Measured values reported in US20240294659A1, “Method and Compositions for Inducing Differentiation of Myeloid Derived Suppressor Cell to Treat Cancer and Infectious Diseases” (OSE Immunotherapeutics, priority 2014, published 2024).

How the values were obtained:
rat MDSC = test: Rat MDSC two-day culture with anti-SIRPα antibody, with or without GM-CSF, phenotype by flow cytometry; assay type: cell-based; settings: two days, GM-CSF 10 ng/ml with or without anti-SIRPα 10 μg/ml (FIG. 4)
Excerpt: Human blood MDSC were characterized and sorted by flow cytometry as follow: CD11b^+CD33^+HLA-DR^low/−CD14^+CD15^− for Mo-MDSC and CD11b^+CD33^+HLA-DR^− CD14^− CD15+ for PMN-MDSC. Rat blood and spleen MDSC were characterized and sorted by flow cytometry as CD11b^+MHC ClassII-NKRP1^int (both Mo-MDSC and PMN-MDSC was included in this phenotype). Mouse MDSC were characterize as follow: CD11b^+MHC Class II-Ly6C^high Ly6G^− for Mo-MDSC and CD11b^+MHC Class II-Ly6C^+Ly6G^+ for PMN-MDSC.
MDSC were purified by flow cytometry according to previously described phenotypes. Purity of cells sorted by flow cytometry was higher than 99%. Freshly purified MDSC were then seeded at 50×10^3 cells/well in 96-well flat-bottomed microtiter plates and cultured for two days in RPMI-1640 medium (supplemented with 2 mM L-glutamine, 100 U/ml penicillin, 0.1 mg/ml streptomycin, 10% heat-inactivated fetal calf serum, 1% nonessential amino acids, 5 mM HEPES, 1 mM sodium pyruvate, and 1 μM 2-mercaptoethanol) and with irrelevant control antibody or anti-SIRPα monoclonal antibody (clone SE7C2 (Santa Cruz Biotechnology) and SE5A5 (Biolegend) for human MDSC or clone ED9 (AbD Serotec) for rat MDSC) at 10 μg/ml. In a different setting, recombinant GM-CSF (10 ng/ml) was also added to force the macrophages/dendritic cells differentiation. […]

[1] = tested on: Hepa1.6 mouse hepatoma cells; test: Hepatocellular carcinoma mice model; assay type: in vivo; settings: Sorafenib 40 mg/kg daily oral gavage, day 0 to day 28 (FIG. 10)
Experimental: Eight-weeks-old C57B1/6J male mice received 2.5×10^6Hepa1.6 mouse hepatoma cells in 100 μL through the portal vein, as previously described (Gauttier et al., 2014). Four and eight days after tumour inoculation, mice were injected intraperitoneally with 100 μg of rat anti-CD137 mAb (4-1BB mAb), or with 300 μg of anti-mouse SIRPα monoclonal antibody (clone P84 from Merck Millipore) or both antibodies or an irrelevant control antibody (clone 3G8) 3 times/week for 4 weeks (FIG. 17A) or with 200 μg of the anti-PD-LI mAb (clone 10F-9G2 from BioXCell) or received both antibodies (anti-SIRPα+anti-PDL1) for 4 weeks (FIG. 17B). Sorafenib (Nexavar-Bayer) treated mice received daily 100 μl oral gavage of 40 mg/kg from day 0 to day 28 (FIG. 10). The overall survival was analyzed. Some mice were sacrificed at day 14 after tumor inoculation for leukocytes tumor infiltration quantification and characterization by isolation of non-parenchymal cells of the liver by a Percoll gradient and FACS analysis.

Compound: GM-CSF: recombinant GM-CSF added to force the macrophages/dendritic cells differentiation
- differentiation of MDSC (MHC Class II, CD103, CD11b, CD80) (rat MDSC): induce the differentiation of MDSC in mature MHC Class II^+ myeloids cells

Compound: CNC(=O)c1cc(Oc2ccc(NC(=O)Nc3ccc(Cl)c(C(F)(F)F)c3)cc2)ccn1 [Sorafenib]
- mice rescued (overall survival) [1]: 60%
